Earlier results on 1 compound are cited in article PMC5036423 (CPT: Pharmacometrics & Systems Pharmacology, 2016).

Series [1] deals with intact PTH. The settings on record: first-in-human phase I study.
Where [2] appears, read: 4 weeks of 5 mg TIW i.v. dosing, patients on HD.

For `CC(=O)N[C@H](CSSC[C@H](N)C(=O)O)C(=O)N[C@H](C)C(=O)N[C@H](CCCNC(=N)N)C(=O)N[C@H](CCCNC(=N)N)C(=O)N[C@H](CCCNC(=N)N)C(=O)N[C@H](C)C(=O)N[C@H](CCCNC(=N)N)C(N)=O` [etelcalcetide], under setting [2], the “Accumulation in Cmax” value was “approximately twofold” and the “Accumulation in area under the curve over 48 hours” value is recorded as “threefold”. The “Plasma exposure (Cmax and area under the curve over 48 hours) versus dose” value (TIW i.v. administration in patients on HD) was “increased proportionally with the dose”. For the same compound, the “Fraction of the drug eliminated by TIW HD” value (patients receiving TIW hemodialysis) was around 50%. In series [1], the “Effect on intact PTH in healthy subjects” value is “showed intact PTH lowering effect”.
